# Measured values taken from article PMC5218480 (PLoS ONE, 2017).
# Tested on: MV-4-11 cells
# Assay: Gene expression microarray analysis (Affymetrix PrimeView) and GSEA
# Type: cell-based, human
# Design: RFU PODN (11730768_x_at) / Fold change /veh PODN (11730768_x_at) / RFU LINC00158 (11744669_a_at) / Fold change /veh LINC00158 (11744669_a_at) / RFU DUSP10 (11751237_a_at) / Fold change /veh DUSP10 (11751237_a_at) / RFU ID3 (11757404_x_at) / Fold change /veh ID3 (11757404_x_at) / RFU PLEKHG5 (11737974_s_at) / Fold change /veh PLEKHG5 (11737974_s_at) / RFU LRRC4B (11730491_at) / Fold change /veh LRRC4B (11730491_at) / RFU GIMAP4 (11747438_a_at) / Fold change /veh GIMAP4 (11747438_a_at) / RFU KRT8 (11758183_x_at) / Fold change /veh KRT8 (11758183_x_at) / RFU CNN1 (11734310_a_at) / Fold change /veh CNN1 (11734310_a_at) / RFU VPS37D (11726825_at) / Fold change /veh VPS37D (11726825_at) / RFU C10orf10 (11716522_x_at) / Fold change /veh C10orf10 (11716522_x_at) / RFU KIR2DL2 /// KIR2DL4 /// KIR2DL5A /// KIR2DL5B /// KIR2DS1 /// KIR2DS2 /// KIR2DS3 /// KIR2DS4 /// KIR3DL3 /// KIR3DL3 /// KIR3DS1 (11738374_at) / Fold change /veh KIR2DL2 /// KIR2DL4 /// KIR2DL5A /// KIR2DL5B /// KIR2DS1 /// KIR2DS2 /// KIR2DS3 /// KIR2DS4 /// KIR3DL3 /// KIR3DL3 /// KIR3DS1 (11738374_at) / RFU C1QL1 (11718748_at) / Fold change /veh C1QL1 (11718748_at) / RFU TMPRSS4 (11747572_a_at) / Fold change /veh TMPRSS4 (11747572_a_at) / RFU HAMP (11756126_x_at) / Fold change /veh HAMP (11756126_x_at) / RFU RNFT2 (11725882_a_at) / Fold change /veh RNFT2 (11725882_a_at) / RFU NR4A2 (11747474_a_at) / Fold change /veh NR4A2 (11747474_a_at) / RFU ABCC12 (11746883_a_at) / Fold change /veh ABCC12 (11746883_a_at) / RFU TMEM136 (11760407_x_at) / Fold change /veh TMEM136 (11760407_x_at) / RFU CLDN22 /// WWC2 (11732394_at) / Fold change /veh CLDN22 /// WWC2 (11732394_at) / RFU HLA-DPB1 (11760878_x_at) / Fold change /veh HLA-DPB1 (11760878_x_at) / RFU SPINT1 (11716480_a_at) / Fold change /veh SPINT1 (11716480_a_at) / RFU GAP43 (11754022_s_at) / Fold change /veh GAP43 (11754022_s_at) / RFU A4GNT (11735810_at) / Fold change /veh A4GNT (11735810_at) / RFU PRB3 (11715151_x_at) / Fold change /veh PRB3 (11715151_x_at) / RFU TUBB4B (11761932_at) / Fold change /veh TUBB4B (11761932_at) / RFU CAPN14 (11732068_a_at) / Fold change /veh CAPN14 (11732068_a_at) / RFU TMCC2 (11721928_a_at) / Fold change /veh TMCC2 (11721928_a_at) / RFU IRGQ (11745062_a_at) / Fold change /veh IRGQ (11745062_a_at) / RFU FAM174B (11720279_a_at) / Fold change /veh FAM174B (11720279_a_at) / RFU TMPRSS4 (11748680_a_at) / Fold change /veh TMPRSS4 (11748680_a_at) / RFU FAM212B (11763350_a_at) / Fold change /veh FAM212B (11763350_a_at) / RFU PLEKHG5 (11743358_a_at) / Fold change /veh PLEKHG5 (11743358_a_at) / RFU ZSCAN30 (11745921_a_at) / Fold change /veh ZSCAN30 (11745921_a_at) / RFU CMKLR1 (11741424_a_at) / Fold change /veh CMKLR1 (11741424_a_at) / RFU LOC101060620 /// MAPK8IP1 (11723275_at) / Fold change /veh LOC101060620 /// MAPK8IP1 (11723275_at) / RFU SPTSSB (11747773_x_at) / Fold change /veh SPTSSB (11747773_x_at) / RFU PRSS12 (11739890_at) / Fold change /veh PRSS12 (11739890_at) / RFU BIN1 (11741810_x_at) / Fold change /veh BIN1 (11741810_x_at) / RFU WNT11 (11732464_a_at) / Fold change /veh WNT11 (11732464_a_at) / RFU C10orf10 (11716521_a_at) / Fold change /veh C10orf10 (11716521_a_at) / RFU C5orf56 (11738089_at) / Fold change /veh C5orf56 (11738089_at) / RFU CYB561 (11721691_x_at) / Fold change /veh CYB561 (11721691_x_at) / RFU ANKRD19P (11752326_a_at) / Fold change /veh ANKRD19P (11752326_a_at) / RFU OR2T12 /// OR2T33 /// OR2T8 (11738714_s_at) / Fold change /veh OR2T12 /// OR2T33 /// OR2T8 (11738714_s_at) / RFU VCAN (11748164_a_at) / Fold change /veh VCAN (11748164_a_at) / RFU JSRP1 (11732532_at) / Fold change /veh JSRP1 (11732532_at) / RFU KRTAP10-11 (11738290_x_at) / Fold change /veh KRTAP10-11 (11738290_x_at) / RFU MYO3A (11730013_a_at) / Fold change /veh MYO3A (11730013_a_at) / RFU EBF3 (11725865_a_at) / Fold change /veh EBF3 (11725865_a_at) / RFU CAMK2N1 (11719241_x_at) / Fold change /veh CAMK2N1 (11719241_x_at) / RFU C5orf56 (11738088_a_at) / Fold change /veh C5orf56 (11738088_a_at) / RFU OLFML3 (11715873_a_at) / Fold change /veh OLFML3 (11715873_a_at) / RFU LOC100653217 /// NTM (11731650_a_at) / Fold change /veh LOC100653217 /// NTM (11731650_a_at) / RFU MAPK11 (11762145_a_at) / Fold change /veh MAPK11 (11762145_a_at) / RFU FIZ1 (11724087_x_at) / Fold change /veh FIZ1 (11724087_x_at) / RFU OASL (11726364_x_at) / Fold change /veh OASL (11726364_x_at) / RFU SOX15 (11748057_x_at) / Fold change /veh SOX15 (11748057_x_at) / RFU CD79A (11719716_a_at) / Fold change /veh CD79A (11719716_a_at) / RFU HIST1H1D (11736915_at) / Fold change /veh HIST1H1D (11736915_at) / RFU CASKIN2 (11723855_a_at) / Fold change /veh CASKIN2 (11723855_a_at) / RFU LOC730098 (11760151_x_at) / Fold change /veh LOC730098 (11760151_x_at) / RFU OR4N2 (11742367_at) / Fold change /veh OR4N2 (11742367_at) / RFU PRRT2 (11749266_a_at) / Fold change /veh PRRT2 (11749266_a_at) / RFU SNX32 (11753110_a_at) / Fold change /veh SNX32 (11753110_a_at) / RFU CDHR5 (11726645_a_at) / Fold change /veh CDHR5 (11726645_a_at) / RFU RCAN1 (11760418_a_at) / Fold change /veh RCAN1 (11760418_a_at) / RFU FAM167A (11723789_a_at) / Fold change /veh FAM167A (11723789_a_at) / RFU FAM26E (11764081_at) / Fold change /veh FAM26E (11764081_at) / RFU ISYNA1 (11749810_s_at) / Fold change /veh ISYNA1 (11749810_s_at) / RFU ACY1 (11761880_at) / Fold change /veh ACY1 (11761880_at) / RFU 11764098_at / Fold change /veh 11764098_at / RFU SAMD14 (11745864_x_at) / Fold change /veh SAMD14 (11745864_x_at) / RFU NPB (11741838_a_at) / Fold change /veh NPB (11741838_a_at) / RFU TMPRSS6 (11731388_a_at) / Fold change /veh TMPRSS6 (11731388_a_at) / RFU KRTAP10-2 (11738614_at) / Fold change /veh KRTAP10-2 (11738614_at) / RFU ARHGAP8 /// PRR5-ARHGAP8 (11727945_x_at) / Fold change /veh ARHGAP8 /// PRR5-ARHGAP8 (11727945_x_at) / RFU KRTAP5-7 /// NADSYN1 (11734609_at) / Fold change /veh KRTAP5-7 /// NADSYN1 (11734609_at) / RFU RASL12 (11751679_a_at) / Fold change /veh RASL12 (11751679_a_at) / RFU CDKN2B (11736163_a_at) / Fold change /veh CDKN2B (11736163_a_at) / RFU PRF1 (11729649_at) / Fold change /veh PRF1 (11729649_at) / RFU, ZNF638 /// ZNF638-IT1 / Fold change vs veh, ZNF638 /// ZNF638-IT1 / RFU, PANK3 / Fold change vs veh, PANK3 / RFU, SH3YL1 / Fold change vs veh, SH3YL1 / RFU, ZEB2 / Fold change vs veh, ZEB2 / RFU, NRIP1 / Fold change vs veh, NRIP1 / RFU, PTTG1IP / Fold change vs veh, PTTG1IP / RFU, CAPN2 / Fold change vs veh, CAPN2 / RFU, MED14 / Fold change vs veh, MED14 / RFU, SNORA58 / Fold change vs veh, SNORA58 / RFU, C1orf63 / Fold change vs veh, C1orf63 / RFU, LRRFIP1 / Fold change vs veh, LRRFIP1 / RFU, NDUFAF7 / Fold change vs veh, NDUFAF7 / RFU, SLC12A2 / Fold change vs veh, SLC12A2 / RFU, IBTK / Fold change vs veh, IBTK / RFU, ESF1 / Fold change vs veh, ESF1 / Fold change vs veh, TMEM50B / RFU, TAOK1 / Fold change vs veh, TAOK1 / RFU, ACBD3 / Fold change vs veh, ACBD3 / RFU, TMA16 / Fold change vs veh, TMA16 / RFU, RWDD3 / Fold change vs veh, RWDD3 / RFU, BCAT1 / Fold change vs veh, BCAT1 / RFU, EDEM3 / Fold change vs veh, EDEM3 / RFU, TMEM33 / Fold change vs veh, TMEM33 / RFU, WDR75 / Fold change vs veh, WDR75 / RFU, AHCTF1 / Fold change vs veh, AHCTF1 / RFU, TFRC / Fold change vs veh, TFRC / RFU, ZDHHC17 / Fold change vs veh, ZDHHC17 / RFU, NOM1 / Fold change vs veh, NOM1 / RFU, ARL8B / Fold change vs veh, ARL8B / RFU, ZBTB11 / Fold change vs veh, ZBTB11 / RFU, TAMM41 / Fold change vs veh, TAMM41 / RFU, KIAA1704 /// LOC100996395 / Fold change vs veh, KIAA1704 /// LOC100996395 / RFU, ING1 / Fold change vs veh, ING1 / RFU, TRMT61B / Fold change vs veh, TRMT61B / RFU, FUBP3 / Fold change vs veh, FUBP3 / RFU, TP53 / Fold change vs veh, TP53 / RFU, TNKS2 / Fold change vs veh, TNKS2 / RFU, ZFP14 / Fold change vs veh, ZFP14 / RFU, ACTR2 / Fold change vs veh, ACTR2 / RFU, PPP3R1 / Fold change vs veh, PPP3R1 / RFU, PIK3R1 / Fold change vs veh, PIK3R1 / RFU, HNRNPA1 / Fold change vs veh, HNRNPA1 / RFU, RNF170 / Fold change vs veh, RNF170 / RFU, ZNF28 / Fold change vs veh, ZNF28 / RFU, RNGTT / Fold change vs veh, RNGTT / RFU, OGT / Fold change vs veh, OGT / RFU, BRD1 / Fold change vs veh, BRD1 / RFU, MARS / Fold change vs veh, MARS / RFU, ZNF655 / Fold change vs veh, ZNF655 / RFU, FAHD1 / Fold change vs veh, FAHD1 / RFU, BDP1 / Fold change vs veh, BDP1 / RFU, LRRCC1 / Fold change vs veh, LRRCC1 / RFU, ARID1A / Fold change vs veh, ARID1A / RFU, ZNF146 / Fold change vs veh, ZNF146 / RFU, ZNF330 / Fold change vs veh, ZNF330 / RFU, GPN3 / Fold change vs veh, GPN3 / RFU, C9orf123 / Fold change vs veh, C9orf123 / RFU, N4BP2L2 / Fold change vs veh, N4BP2L2 / RFU, ARFIP1 / Fold change vs veh, ARFIP1 / RFU, FAM179B / Fold change vs veh, FAM179B / RFU, BCL10 / Fold change vs veh, BCL10 / RFU, UHRF1BP1L / Fold change vs veh, UHRF1BP1L / RFU, BET1 / Fold change vs veh, BET1 / RFU, CNOT2 / Fold change vs veh, CNOT2 / RFU, ZNF268 / Fold change vs veh, ZNF268 / Fold change vs veh, ZNF507 / RFU, DGCR2 / Fold change vs veh, DGCR2 / RFU, WDSUB1 / Fold change vs veh, WDSUB1 / Fold change vs veh, HSP90B1 /// MIR3652 / RFU, ADSS / Fold change vs veh, ADSS / RFU, GK / Fold change vs veh, GK / RFU, ZNF148 / Fold change vs veh, ZNF148 / RFU, TAF9 / Fold change vs veh, TAF9 / RFU, SLC1A5 / Fold change vs veh, SLC1A5 / RFU, SLMO2 / Fold change vs veh, SLMO2 / RFU, ABCC4 / Fold change vs veh, ABCC4 / RFU, LOC101060439 /// RAP1B / Fold change vs veh, LOC101060439 /// RAP1B / RFU, RFX7 / Fold change vs veh, RFX7 / RFU, GTPBP10 / Fold change vs veh, GTPBP10 / RFU, CNEP1R1 / Fold change vs veh, CNEP1R1 / RFU, BIVM-ERCC5 /// ERCC5 / Fold change vs veh, BIVM-ERCC5 /// ERCC5 / RFU, ILF3 / Fold change vs veh, ILF3 / RFU 11762660_at / Fold change /veh 11762660_at / RFU VCAN (11757783_s_at) / Fold change /veh VCAN (11757783_s_at) / RFU DDX43 (11728927_at) / Fold change /veh DDX43 (11728927_at) / RFU KRT8 (11758188_x_at) / Fold change /veh KRT8 (11758188_x_at) / RFU NKD1 (11759106_at) / Fold change /veh NKD1 (11759106_at) / RFU SRD5A1 (11742802_a_at) / Fold change /veh SRD5A1 (11742802_a_at) / RFU TPSAB1 /// TPSB2 (11721975_s_at) / Fold change /veh TPSAB1 /// TPSB2 (11721975_s_at) / RFU GSTM3 (11746129_a_at) / Fold change /veh GSTM3 (11746129_a_at) / RFU IL23R (11737362_x_at) / Fold change /veh IL23R (11737362_x_at) / RFU TMEM51 (11727254_a_at) / Fold change /veh TMEM51 (11727254_a_at) / RFU PIWIL2 (11732686_x_at) / Fold change /veh PIWIL2 (11732686_x_at) / RFU ORM1 (11744905_x_at) / Fold change /veh ORM1 (11744905_x_at) / RFU CCDC152 (11743942_at) / Fold change /veh CCDC152 (11743942_at) / RFU ECM1 (11717891_a_at) / Fold change /veh ECM1 (11717891_a_at) / RFU IL23R (11748794_a_at) / Fold change /veh IL23R (11748794_a_at) / RFU TNFAIP8L3 (11732012_x_at) / Fold change /veh TNFAIP8L3 (11732012_x_at) / RFU MBOAT4 (11741988_at) / Fold change /veh MBOAT4 (11741988_at) / RFU 11764193_at / Fold change /veh 11764193_at / RFU TMEM53 (11763286_at) / Fold change /veh TMEM53 (11763286_at) / RFU MAGEB2 (11727129_at) / Fold change /veh MAGEB2 (11727129_at) / RFU TMEM200A (11744735_a_at) / Fold change /veh TMEM200A (11744735_a_at) / RFU CCDC152 (11751479_a_at) / Fold change /veh CCDC152 (11751479_a_at) / RFU FAM211A (11726209_a_at) / Fold change /veh FAM211A (11726209_a_at) / RFU RGS16 (11746705_a_at) / Fold change /veh RGS16 (11746705_a_at) / RFU VCAN (11755009_s_at) / Fold change /veh VCAN (11755009_s_at) / RFU RHOB (11743442_s_at) / Fold change /veh RHOB (11743442_s_at) / RFU RGS16 (11720943_a_at) / Fold change /veh RGS16 (11720943_a_at) / RFU RGS16 (11720944_at) / Fold change /veh RGS16 (11720944_at) / RFU, VPS4B / Fold change vs veh, VPS4B / RFU, CREB1 / Fold change vs veh, CREB1 / RFU, DNAJC13 / Fold change vs veh, DNAJC13 / RFU, GNAQ / Fold change vs veh, GNAQ / RFU, CDK5R1 / Fold change vs veh, CDK5R1 / RFU, ZRANB3 / Fold change vs veh, ZRANB3 / RFU, CUL4A / Fold change vs veh, CUL4A / RFU, CCNY / Fold change vs veh, CCNY / RFU, UFL1 / Fold change vs veh, UFL1 / RFU, COG3 / Fold change vs veh, COG3 / RFU, DIAPH2 / Fold change vs veh, DIAPH2 / RFU, SKA2 / Fold change vs veh, SKA2 / RFU, AFF3 / Fold change vs veh, AFF3 / RFU, LMF1 / Fold change vs veh, LMF1 / RFU, IPO11 / Fold change vs veh, IPO11 / RFU, DFFB / Fold change vs veh, DFFB / RFU, FOXP1 / Fold change vs veh, FOXP1 / RFU, CARD8 / Fold change vs veh, CARD8 / RFU, STRN3 / Fold change vs veh, STRN3 / RFU, ADK / Fold change vs veh, ADK / RFU, RASSF2 / Fold change vs veh, RASSF2 / RFU, WIPF1 / Fold change vs veh, WIPF1 / RFU, LARP1B / Fold change vs veh, LARP1B / RFU, RASA1 / Fold change vs veh, RASA1 / RFU, RB1 / Fold change vs veh, RB1 / RFU, PPFIA1 / Fold change vs veh, PPFIA1 / RFU, MAT2A / Fold change vs veh, MAT2A / RFU, CCT5 / Fold change vs veh, CCT5 / RFU, WDR92 / Fold change vs veh, WDR92 / RFU, CUX1 / Fold change vs veh, CUX1 / RFU, TTC7A / Fold change vs veh, TTC7A / RFU, TMEM135 / Fold change vs veh, TMEM135 / RFU, DEPTOR / Fold change vs veh, DEPTOR / RFU, CPM / Fold change vs veh, CPM / RFU, DNAJB6 / Fold change vs veh, DNAJB6 / RFU, CACNA2D3 / Fold change vs veh, CACNA2D3 / RFU, DTX4 / Fold change vs veh, DTX4 / RFU, TFCP2 / Fold change vs veh, TFCP2 / RFU, GMCL1 /// GMCL1P1 / Fold change vs veh, GMCL1 /// GMCL1P1 / RFU, AEBP2 / Fold change vs veh, AEBP2 / RFU, SNHG1 /// SNORD22 /// SNORD25 /// SNORD26 /// SNORD27 /// SNORD28 /// SNORD29 /// SNORD31 / Fold change vs veh, SNHG1 /// SNORD22 /// SNORD25 /// SNORD26 /// SNORD27 /// SNORD28 /// SNORD29 /// SNORD31 / Fold change (Aza/veh), C12orf56 (ProbeSet 11735607_a_at) / Fold change (ACY-1035/veh), C12orf56 (ProbeSet 11735607_a_at) / Fold change (Aza/veh), FGFR1OP (ProbeSet 11751329_s_at) / Fold change (ACY-1035/veh), FGFR1OP (ProbeSet 11751329_s_at) / Fold change (Aza/veh), VPS36 (ProbeSet 11739960_a_at) / Fold change (ACY-1035/veh), VPS36 (ProbeSet 11739960_a_at) / RFU SYPL1 (11715823_x_at) / Fold change /veh SYPL1 (11715823_x_at) / RFU IGFBP7 (11715501_s_at) / Fold change /veh IGFBP7 (11715501_s_at) / RFU REEP3 (11722064_at) / Fold change /veh REEP3 (11722064_at) / RFU IGLL1 (11728026_x_at) / Fold change /veh IGLL1 (11728026_x_at): dose or concentration left out as unconfirmed
# Settings: ProbeSet 11743567_s_at; LIST B
smiles,measurement,value
Nc1ncn([C@@H]2O[C@H](CO)[C@@H](O)[C@H]2O)c(=O)n1 [azacitidine],"Fold change vs veh, ACBD3",1.04
